The text below walks through data of publication PMC1521118 (Environmental Health Perspectives, 1993).

Read-outs that look alike come from different tables or passages of the source.

For data set [1], the system named is Salmonella typhimurium TA97.
Data set [2] concerns Salmonella typhimurium TA98.
A further data set has as its system cytochrome P450. The note with it: phenobarbital-inducible cytochrome P450, presumably CYP2B; cited from earlier work.
Data set [3] has as its system Bacillus subtilis-transforming DNA. The settings on record: reactive species toward Bacillus subtilis-transforming DNA; cited from earlier work.
Another data set concerns sulfotransferase. The settings on record: cited from earlier work.
For data set [4] the following is noted: rat, in vivo; cited from earlier work.
The conditions of data set [5]: 10 female Wistar rats; at 15 months; cited from earlier work.
The conditions of data set [6]: Sprague-Dawley rats; cited from earlier work.
For the next data set, the system named is mouse sarcoma 180 cells. The note with it: mouse sarcoma 180 cells in vitro; cited from earlier work.
The test system of data set [7] is sarcoma 180 ascites cells. The settings on record: mice bearing sarcoma 180 ascites cells; cited from earlier work.
The test system of data set [8] is Salmonella typhimurium TA98. The settings on record: ref 35 (McCartney et al.); cited from earlier work.
Where [9] appears, read: with (+) Aroclor 1254 rat hepatic S9 10% v/v, 100 ng/plate.
Setting [10] is: absence of S9, 100 ng/plate or less.

For the compound `Nc1ncnc2nc[nH]c12` [Adenine], the “histidine revertants/plate, TA97” value in data set [1] (setting [9]) is given as 104 + 12 histidine revertants/plate. For the same compound, in data set [2] (with (+) S9, 100 ng/plate), the “histidine revertants/plate, TA98” value is on record as 76 + 11 histidine revertants/plate. The “oxidation to adenine-1-N-oxide” value in the data set on cytochrome P450 is listed as “failed to oxidize”.

Take `Cn1cnc2c(N)ncnc21` [9-Methyladenine]: in data set [1] (setting [9]), the “histidine revertants/plate, TA97” value was 88 + 4 histidine revertants/plate. In addition, the “histidine revertants/plate, TA98” value in [2] (without (-) S9, 100 ng/plate) was 21 + 6 histidine revertants/plate.

For `CC(=O)On1cnc2ncnc-2c1N` [1-acetoxyadenine], the mutagenicity result in data set [3] is on record as “weak mutagen”.

With `Nc1ccc2cc3ccccc3cc2c1` [2-Aminoanthracene, reference compound], the “histidine revertants/plate, TA97” value in [1] (Salmonella typhimurium) was 600 histidine revertants/plate. In addition, the “histidine revertants/plate, TA98” value in data set [2] (Salmonella typhimurium) was 865 histidine revertants/plate.

For the compound `Cn1cnc2c(N)[n+]([O-])cnc21` [9-Methyladenine-1-N-oxide], in data set [2] (with (+) S9, 100 ng/plate), the “histidine revertants/plate, TA98” value is on record as 118 + 9 histidine revertants/plate.

Regarding `Nc1ncnc2c1ncn2Cc1ccccc1` [9-Benzyladenine], the “histidine revertants/plate, TA98” value in data set [2] (with (+) S9, 100 ng/plate) is recorded as 131 + 18 histidine revertants/plate.

Turning to `Nc1c2[nH]cnc2nc[n+]1[O-]` [Adenine-1-N-oxide], in [2] (without (-) S9, 100 ng/plate), the “histidine revertants/plate, TA98” value is reported as 19 + 6 histidine revertants/plate. Also, in the data set on sulfotransferase, the “activity as a sulfate acceptor” value is “inactive”. Further, the tumor production entry in [4] was “failed to produce tumors”.

Turning to `ONc1ncnc2nc[nH]c12` [6-Hydroxylaminopurine], the “reversion rate relative to spontaneous reversion rate, TA97” value in data set [1] (1 ng/plate, without metabolic activation) is given as “twice the spontaneous reversion rate”. Also, in data set [1] (100 ng/plate), the “toxicity toward TA97” value is recorded as “toxic”. For the same compound, the “histidine revertants/plate, TA97” value in data set [1] (with (+) S9, 1 ng/plate) is given as 113 + 4 histidine revertants/plate. Besides, the “toxicity toward TA98” value in data set [2] (1 ng/plate) was “still toxic”; in [2] (100 ng/plate), “toxic”; in data set [2] (concentration not given) it was “extremely toxic”. The “histidine revertants/plate, TA98” value is reported as “toxic” in data set [2] (with (+) S9, 1 ng/plate) and “toxic” in data set [2] (without (-) S9, 1 ng/plate). For the same compound, in data set [5], the tumors produced entry is on record as “only one tumor”. Also, the oncogenicity entry in data set [6] was “completely inactive”. Besides, in the data set on mouse sarcoma 180 cells, the effect on cells result is “induced mitotic inhibition and nuclear degeneration”. Also, in [7], the survival time result was “prolonged the survival time”. Moreover, in data set [8], the “mutagenicity toward TA98” value is “inactive”.

Turning to `ONc1ncnc2c1ncn2Cc1ccccc1` [9-Benzyl-6-hydroxylaminopurine], the “mutagenic activity toward TA97 (in words)” value in data set [1] (setting [10]) is “highly active”. Besides, the “mutagenic activity toward TA98 (in words)” value in data set [2] (setting [10]) was “inactive”.
